Data on 2 compounds can be found in patent US8067440B2, “Phosphonium salts derivatives and uses thereof” (Valorisation-Recherche, Limited Partnership, priority 2004, dated 2011).

SMILES strings stand for the structures. Where a name gives a salt, the structure may show the parent alone.

Usually melting point stands for the temperature, or range, at which the solid turns liquid. Turning to `[Br-].c1ccc(P(c2ccccc2)c2cccc([P+](c3ccccc3)(c3ccccc3)c3ccccc3)c2)cc1`, the melting point is 215 to 220 °C. Turning to `BrCc1ccc(-c2ccc([P+](c3ccccc3)(c3ccccc3)c3ccccc3)cc2)cc1` (as salt: perchlorate) [(16), 4-(4-bromomethylphenyl)phenyl triphenylphosphonium perchlorate], the melting point was 72 to 76 °C.
